20 compounds from ChEMBL document CHEMBL1131864, “Effects of sesquiterpenes and triterpenes from the rhizome of Alisma orientale on nitric oxide production in lipopolysaccharide-activated macrophages: absolute stereostructures of alismaketones-B 23-acetate and -C 23-acetate” (Bioorg Med Chem Lett, 1999) can be followed below.

Common to all, as to assay type: functional
Assay [1] is filed under the species Mus musculus. The assay can be described thus: Inhibition of nitric oxide production in LPS-activated mouse macrophages at a concentration of 100 uM.
The species named for assay [2] is Mus musculus. Put plainly: Inhibition of nitric oxide production in LPS-activated mouse macrophages at a concentration of 3 uM.
Assay [3] is filed under the species Mus musculus. The assay can be described thus: Inhibition of nitric oxide production in LPS-activated mouse macrophages at a concentration of 1 uM.
The species named for assay [4] is Mus musculus. The assay can be described thus: Inhibition of nitric oxide production in LPS-activated mouse macrophages at a concentration of 30 uM.
Assay [5] is filed under the species Mus musculus. Put plainly: Concentration required for inhibition of nitric oxide production in LPS-activated mouse macrophages.
For assay [6], the species on record is Mus musculus. Put plainly: Inhibition of nitric oxide production in LPS-activated mouse macrophages at a concentration of 10 uM.

One may read the inhibition as the drop in the measured response relative to a control, in per cent. The term IC50 denotes the concentration that inhibits the measured activity by half. A high value points to a need for much substance. In the case of `C[C@H](C[C@H](O)[C@H](O)C(C)(C)O)C1=C2C[C@H](O)C3[C@@]4(C)CCC(=O)C(C)(C)C4CC[C@]3(C)[C@@]2(C)CC1` (stereo not given in full), in assay [1], the inhibition at 100 µM was 111%. Moreover, in assay [2], the inhibition at 3 µM came to 21.4%. Also, the inhibition at 1 µM in assay [3] stood at 5.8%. The inhibition at 30 µM in assay [4] worked out at 113%. Also, the half-inhibitory concentration (IC50) in assay [5] is > 10 µM. In addition, the inhibition at 10 µM in assay [6] came to 30%.

As to `COC(=O)C(C)(C)C1CC[C@@]2(C)C3[C@H](CC4=C([C@H](C)C[C@H](OC(C)=O)[C@H]5OC5(C)C)CC[C@@]42C)OC(=O)C[C@@]13C` (stereo not given in full), the inhibition at 100 µM in assay [1] was 110%. Also, in assay [2], the inhibition at 3 µM worked out at 17.2%. In addition, the inhibition at 1 µM in assay [3] is -2.6%. Also, the inhibition at 30 µM in assay [4] worked out at 84.2%. For the same compound, it took 10 µM to reach half-maximal inhibition in assay [5] (IC50). In addition, in assay [6], the inhibition at 10 µM came out at 49.2%.

As for `CC(=O)O[C@@H](C[C@@H](C)C1=C2[C@H](O)[C@H](O)C3[C@@]4(C)CCC(=O)C(C)(C)C4CC[C@]3(C)[C@@]2(C)CC1)[C@H]1OC1(C)C` (stereo not given in full), the inhibition at 100 µM in assay [1] amounted to 116%. Also, the inhibition at 3 µM in assay [2] was 4%. The inhibition at 1 µM in assay [3] was found to be 5.9%. Also, in assay [4], the inhibition at 30 µM came out at 117%. The IC50 in assay [5] was > 10 µM. In assay [6], the inhibition at 10 µM came out at 32.3%.

Take `CC(=O)O[C@H]1C[C@@H](C)C2=C3C[C@H](O)C4[C@@]5(C)CCC(=O)C(C)(C)C5CC[C@]4(C)[C@@]3(C)C[C@@H]2O[C@H]1C(C)(C)O` (stereo not given in full): in assay [1], the inhibition at 100 µM came to 90.8%. For the same compound, in assay [2], the inhibition at 3 µM is 7.5%. For the same compound, the inhibition at 1 µM in assay [3] is -4.5%. The inhibition at 30 µM in assay [4] was found to be 42.9%. The same compound had an IC50 in assay [5] of 36 µM. Also, in assay [6], the inhibition at 10 µM was 13.5%.

Turning to `C=C(C)[C@H](O)[C@@H](O)C[C@@H](C)C1=C2C[C@H](O)C3[C@@]4(C)CCC(=O)C(C)(C)C4CC[C@]3(C)[C@@]2(C)CC1` (stereo not given in full), the inhibition at 100 µM in assay [1] was 106%. For the same compound, in assay [2], the inhibition at 3 µM was determined as 21.4%. Further, the inhibition at 1 µM in assay [3] was 8.8%. For the same compound, in assay [4], the inhibition at 30 µM turned out to be 104%. The IC50 in assay [5] was > 10 µM. In assay [6], the inhibition at 10 µM was found to be 29.7%.

In the case of `CC(C)C1=CC2C(CC[C@]2(C)O)/C(=C/S(=O)(=O)O)CC1` (stereo not given in full), the inhibition at 100 µM in assay [1] was determined as 27.1%. In addition, the inhibition at 3 µM in assay [2] was found to be 14.3%. Besides, in assay [3], the inhibition at 1 µM worked out at 8.4%. In addition, the inhibition at 30 µM in assay [4] turned out to be 21.5%. Also, the IC50 in assay [5] is > 100 µM. Besides, the inhibition at 10 µM in assay [6] came to 11%.

In the case of `C=C1CCC(C(C)C)=CC2C1CC[C@]2(C)O` (stereo not given in full), the inhibition at 100 µM in assay [1] was determined as 97.4%. Further, the inhibition at 3 µM in assay [2] was determined as 17.6%. Further, in assay [3], the inhibition at 1 µM amounted to 3.4%. Moreover, in assay [4], the inhibition at 30 µM is 57.5%. Further, the IC50 in assay [5] is 23 µM. Further, the inhibition at 10 µM in assay [6] stood at 27%.

Regarding `C[C@H](CC(=O)CC(C)(C)O)C1=C2CCC3[C@@]4(C)CCC(=O)C(C)(C)C4CC[C@]3(C)[C@@]2(C)CC1=O` (stereo not given in full), the inhibition at 100 µM in assay [1] stood at 97.2%. For the same compound, the inhibition at 3 µM in assay [2] was 17.2%. Further, the inhibition at 1 µM in assay [3] is -5.1%. In assay [4], the inhibition at 30 µM came out at 71.3%. In assay [5], the half-inhibitory concentration (IC50) stood at 17 µM. The inhibition at 10 µM in assay [6] was 26.7%.

Turning to `C=C1CC[C@@]2(C(C)C)O[C@H]2C2C1CC[C@]2(C)O` (stereo not given in full), the inhibition at 100 µM in assay [1] was determined as 74.9%. Further, the inhibition at 3 µM in assay [2] was determined as 5%. For the same compound, the inhibition at 1 µM in assay [3] stood at 0.9%. In addition, the inhibition at 30 µM in assay [4] stood at 29.2%. The compound also displayed a 50% inhibitory concentration (IC50) in assay [5] of 53 µM. The inhibition at 10 µM in assay [6] turned out to be 14.1%.

In the case of `CC(=O)O[C@@H](C[C@@H](C)C1=C2C[C@H](O)C3[C@@]4(C)CCC(=O)C(C)(C)C4CC[C@]3(C)[C@@]2(C)CC1)[C@H](O)C(C)(C)O` (stereo not given in full), the inhibition at 100 µM in assay [1] is 104%. In assay [2], the inhibition at 3 µM was found to be 10%. For the same compound, the inhibition at 1 µM in assay [3] is 9.2%. Besides, in assay [4], the inhibition at 30 µM is 81%. Besides, the IC50 in assay [5] was 16 µM. The inhibition at 10 µM in assay [6] was 32.1%.

`CC(=O)O[C@@H](C[C@@H](C)C1=C2C=CC3[C@@]4(C)CCC(=O)C(C)(C)C4CC[C@]3(C)[C@@]2(C)CC1=O)[C@H]1OC1(C)C` (stereo not given in full): in assay [1], the inhibition at 100 µM was determined as 104%. Moreover, in assay [2], the inhibition at 3 µM is 27.9%. Further, the inhibition at 1 µM in assay [3] is 17.8%. For the same compound, the inhibition at 30 µM in assay [4] is 86.5%. The compound also showed an IC50 in assay [5] of 8.4 µM. Besides, the inhibition at 10 µM in assay [6] is 54.8%.

As to `CC(=O)O[C@@H](C[C@@H](C)C(=O)CC[C@@]1(C)C(=O)C=CC2[C@@]3(C)CCC(=O)C(C)(C)C3CC[C@@]21C)[C@H]1OC1(C)C` (stereo not given in full), the inhibition at 100 µM in assay [1] was found to be 114%. Further, the inhibition at 3 µM in assay [2] turned out to be 10.2%. Moreover, the inhibition at 1 µM in assay [3] is 2.9%. In addition, in assay [4], the inhibition at 30 µM turned out to be 61%. In addition, the 50% inhibitory concentration (IC50) in assay [5] came out at 23 µM. In addition, the inhibition at 10 µM in assay [6] was 22.7%.

As for `CC(=O)O[C@@H](C[C@@H](C)C1=C2C[C@H](O)C3[C@@]4(C)CCC(=O)C(C)(C)C4CC[C@]3(C)[C@@]2(C)CC1)[C@H]1OC1(C)C` (stereo not given in full), the inhibition at 100 µM in assay [1] was found to be 105%. Also, in assay [2], the inhibition at 3 µM was 13.4%. For the same compound, the inhibition at 1 µM in assay [3] stood at 0%. Moreover, in assay [4], the inhibition at 30 µM came out at 106%. The 50% inhibitory concentration (IC50) in assay [5] is > 10 µM. Also, the inhibition at 10 µM in assay [6] was 29.7%.

As to `CC(C)C1=CC2C(CC[C@]2(C)O)[C@@](O)(CO)CC1` (stereo not given in full), the inhibition at 100 µM in assay [1] came to 64.1%. In addition, in assay [2], the inhibition at 3 µM was -3.1%. Also, the inhibition at 1 µM in assay [3] is -4.3%. In assay [4], the inhibition at 30 µM stood at 21.2%. The same compound had an IC50 in assay [5] of 68 µM. Moreover, the inhibition at 10 µM in assay [6] was 4.8%.

For `C[C@H](C[C@H](O)[C@H]1OC1(C)C)C1=C2C[C@H](O)C3[C@@]4(C)CCC(=O)C(C)(C)C4CC[C@]3(C)[C@@]2(C)CC1` (stereo not given in full), in assay [1], the inhibition at 100 µM was 108%. In assay [2], the inhibition at 3 µM is 21.3%. Moreover, in assay [3], the inhibition at 1 µM came to 13.2%. The inhibition at 30 µM in assay [4] was 109%. For the same compound, the IC50 in assay [5] was > 10 µM. The inhibition at 10 µM in assay [6] was 36.3%.

For the compound `CC(=O)O[C@H]([C@@H](O)C[C@@H](C)C1=C2C[C@H](O)C3[C@@]4(C)CCC(=O)C(C)(C)C4CC[C@]3(C)[C@@]2(C)CC1)C(C)(C)O` (stereo not given in full), the inhibition at 100 µM in assay [1] was determined as 112%. Further, in assay [2], the inhibition at 3 µM stood at 6.4%. Besides, in assay [3], the inhibition at 1 µM was -2.9%. Also, the inhibition at 30 µM in assay [4] was found to be 71%. Moreover, the IC50 in assay [5] was > 10 µM. The inhibition at 10 µM in assay [6] is 13.4%.

In the case of `O=C(/C=C/c1ccc(O)c(O)c1)OCCc1ccccc1` [CAFFEIC ACID PHENETHYL ESTER], the inhibition at 100 µM in assay [1] came to 104%. Also, in assay [2], the inhibition at 3 µM amounted to 25.5%. Besides, the inhibition at 1 µM in assay [3] is -1.9%. The inhibition at 30 µM in assay [4] worked out at 104%. In addition, in assay [5], half-maximal inhibition (IC50) required 4 µM. Besides, the inhibition at 10 µM in assay [6] was 97.5%.

`C=C1/C=C/[C@H](C(C)C)CC/C(C)=C/CC1` [GERMACRENE D]: the inhibition at 100 µM in assay [1] was found to be 68.5%. Further, the inhibition at 3 µM in assay [2] stood at 1.6%. In addition, in assay [3], the inhibition at 1 µM is 7.5%. Further, the inhibition at 30 µM in assay [4] turned out to be 29%. The half-inhibitory concentration (IC50) in assay [5] amounted to 58 µM. For the same compound, the inhibition at 10 µM in assay [6] was determined as 16.7%.

On to `N=C(N)NCCSSCCNC(=N)N` [GUANIDINOETHYLDISULFIDE], for which, in assay [1], the inhibition at 100 µM amounted to 105%. For the same compound, the inhibition at 3 µM in assay [2] is 76.3%. Also, the inhibition at 1 µM in assay [3] amounted to 39.1%. For the same compound, the inhibition at 30 µM in assay [4] was determined as 105%. The compound further gave an IC50 in assay [5] of 1.4 µM. Further, the inhibition at 10 µM in assay [6] turned out to be 102%.

As to `CNC(=N)NCCC[C@H](N)C(=O)O` [TILARGININE], the inhibition at 100 µM in assay [1] turned out to be 79.2%. Further, the inhibition at 3 µM in assay [2] was 2%. Further, the inhibition at 1 µM in assay [3] is 4.4%. Moreover, in assay [4], the inhibition at 30 µM was determined as 52.3%. The compound also came in with an IC50 in assay [5] of 28 µM. For the same compound, the inhibition at 10 µM in assay [6] worked out at 17.7%.
